Values joined by “and” are separate entries in the source; they are usually repeats but may differ in a detail not shown here. Equal values may be shown once. Inconclusive results and toxic doses are left out. The calls were made as follows: active = survival T/C of 150% or more; inactive = T/C below 125% in these data.
Tested on: P388 leukemia ip, CD2F1 mice, survival T/C
Assay: NCI In Vivo Anticancer Drug Screen. Data for tumor model P388 Leukemia (intraperitoneal) in CD2F1 (CDF1) mice
Conditions: endpoint: median survival time, higher = longer survival
Procedure, shortened: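 Mice carrying the transplanted tumor received test compound or vehicle. Survival was recorded in each group, and the value is the treated-group measurement divided by that of the vehicle-treated control group.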

[1] = dose: 50.0 mg/kg/injection, schedule: Q01DX009 (ip), vehicle: Klucel (hydroxypropylcellulose) (HPC)
[2] = dose: 100.0 mg/kg/injection, schedule: Q01DX009 (ip), vehicle: Klucel (hydroxypropylcellulose) (HPC)
[3] = dose: 200.0 mg/kg/injection, schedule: Q01DX009 (ip), vehicle: Klucel (hydroxypropylcellulose) (HPC)
[4] = dose: 200.0 mg/kg/injection, schedule: Q01DX009 (ip), vehicle: saline with Tween-80
[5] = dose: 25.0 mg/kg/injection, schedule: Q01DX009 (ip), vehicle: saline
[6] = dose: 50.0 mg/kg/injection, schedule: Q01DX009 (ip), vehicle: saline
[7] = dose: 100.0 mg/kg/injection, schedule: Q01DX009 (ip), vehicle: saline
[8] = dose: 200.0 mg/kg/injection, schedule: Q01DX009 (ip), vehicle: saline
[9] = dose: 50.0 mg/kg/injection, schedule: Q01DX005 (ip), vehicle: saline with Tween-80
[10] = dose: 100.0 mg/kg/injection, schedule: Q01DX005 (ip), vehicle: saline with Tween-80
[11] = dose: 200.0 mg/kg/injection, schedule: Q01DX005 (ip), vehicle: saline with Tween-80

Measured: T/C

O=C1N/C(=N\O)C(F)C(NO)N1 (configuration not stated)
inactive: dose: 11.25 mg/kg/injection, schedule: Q04DX002 (ip), vehicle: distilled water + Tween-80 94 % of control | dose: 22.5 mg/kg/injection, schedule: Q04DX002 (ip), vehicle: distilled water + Tween-80 103 % of control | dose: 45.0 mg/kg/injection, schedule: Q04DX002 (ip), vehicle: distilled water + Tween-80 99 % of control | dose: 90.0 mg/kg/injection, schedule: Q04DX002 (ip), vehicle: distilled water + Tween-80 103 % of control | dose: 180.0 mg/kg/injection, schedule: Q04DX002 (ip), vehicle: distilled water + Tween-80 93 % of control | dose: 360.0 mg/kg/injection, schedule: Q04DX002 (ip), vehicle: distilled water + Tween-80 93 % of control

CC(=O)OC1C2CCC3C(C)(O)C4CC(O)C(C)(C)C4(O)C(O)CC13CC2(C)O (configuration not stated)
inactive: dose: 0.09 mg/kg/injection, schedule: Q01DX009 (ip), vehicle: saline 100 % of control | dose: 0.19 mg/kg/injection, schedule: Q01DX009 (ip), vehicle: saline 98 % of control | dose: 0.25 mg/kg/injection, schedule: Q01DX009 (ip), vehicle: saline 116 % of control | dose: 0.39 mg/kg/injection, schedule: Q01DX009 (ip), vehicle: saline 100 % of control and 89 % of control | dose: 0.5 mg/kg/injection, schedule: Q01DX009 (ip), vehicle: saline 108 % of control | dose: 1.0 mg/kg/injection, schedule: Q01DX009 (ip), vehicle: saline 107 % of control

O=C(O)Cc1cn2cc(Cl)ccc2n1
inactive: dose: 100.0 mg/kg/injection, schedule: Q01DX001 (ip), vehicle: Klucel (hydroxypropylcellulose) (HPC) 102 % of control | dose: 200.0 mg/kg/injection, schedule: Q01DX001 (ip), vehicle: Klucel (hydroxypropylcellulose) (HPC) 101 % of control | dose: 400.0 mg/kg/injection, schedule: Q01DX001 (ip), vehicle: Klucel (hydroxypropylcellulose) (HPC) 95 % of control

Cc1ccc(N=Cc2ccc(C=Nc3ccc(C)cc3C)cc2)c(C)c1
inactive: [1] 92 % of control | [2] 91 % of control | [3] 97 % of control

O=C(O)c1ccc2cc3ccccc3cc2c1
inactive: dose: 100.0 mg/kg/injection, schedule: Q01DX009 (ip), vehicle: saline with Tween-80 99 % of control | [4] 91 % of control

CCC(=O)NC
inactive: [5] 97 % of control | [6] 97 % of control | [7] 106 % of control | [8] 107 % of control

O=C1NC2CC1C(O)C2O (configuration not stated)
inactive: dose: 60.0 mg/kg/injection, schedule: Q01DX005 (ip), vehicle: saline 101 % of control | dose: 120.0 mg/kg/injection, schedule: Q01DX005 (ip), vehicle: saline 101 % of control | dose: 240.0 mg/kg/injection, schedule: Q01DX005 (ip), vehicle: saline 100 % of control

O=c1[nH]c2cc([N+](=O)[O-])ccc2nc1/C=C(\O)c1ccc([N+](=O)[O-])cc1
inactive: dose: 60.0 mg/kg/injection, schedule: Q01DX005 (ip), vehicle: Klucel + Tween-80 87 % of control | dose: 120.0 mg/kg/injection, schedule: Q01DX005 (ip), vehicle: Klucel + Tween-80 86 % of control | dose: 240.0 mg/kg/injection, schedule: Q01DX005 (ip), vehicle: Klucel + Tween-80 90 % of control

Cc1ccc(NC(=S)NC(=O)/C=C/c2ccccc2)cc1Cl
inactive: [5] 100 % of control | [6] 105 % of control | [7] 98 % of control | [8] 97 % of control

C=CCOP1(OCC=C)=NP(OCC=C)(OCC=C)=NP(OCC=C)(OCC=C)=N1
inactive: [9] 96 % of control | [10] 100 % of control | [11] 102 % of control

CC1(C)CC(O)(Cc2ccccc2)C(=O)c2ccccc21 (configuration not stated)
inactive: dose: 25.0 mg/kg/injection, schedule: Q01DX009 (ip), vehicle: Klucel (hydroxypropylcellulose) (HPC) 96 % of control | [1] 95 % of control | [2] 98 % of control | [3] 98 % of control | dose: 400.0 mg/kg/injection, schedule: Q01DX009 (ip), vehicle: Klucel (hydroxypropylcellulose) (HPC) 86 % of control

COC(=O)OC(C#N)c1cccc([N+](=O)[O-])c1 (configuration not stated)
inactive: dose: 25.0 mg/kg/injection, schedule: Q01DX009 (ip), vehicle: suspension in saline 101 % of control | dose: 50.0 mg/kg/injection, schedule: Q01DX009 (ip), vehicle: suspension in saline 98 % of control | [7] 94 % of control | dose: 100.0 mg/kg/injection, schedule: Q01DX009 (ip), vehicle: suspension in saline 104 % of control

O=Cc1cccc(O)c1O
inactive: [7] 103 % of control and 110 % of control | [8] 115 % of control

CC(C1N(c2ccc(C(=O)NC(CCC(=O)O)C(=O)O)cc2)CC2CNc3nc(N)[nH]c(=O)c3N21)C1N(c2ccc(C(=O)NC(CCC(=O)O)C(=O)O)cc2)CC2CNc3nc(N)[nH]c(=O)c3N21 (configuration not stated)
inactive: dose: 50.0 mg/kg/injection, schedule: Q01DX001 (ip), vehicle: saline 94 % of control | dose: 100.0 mg/kg/injection, schedule: Q01DX001 (ip), vehicle: saline 108 % of control | dose: 200.0 mg/kg/injection, schedule: Q01DX001 (ip), vehicle: saline 116 % of control

CN=C(NC)c1ccc(NC(=O)c2cc(OC)cc(C(=O)Nc3ccc(C(=NC)NC)cc3)c2)cc1
inactive: dose: 6.25 mg/kg/injection, schedule: Q01DX005 (ip), vehicle: Klucel (hydroxypropylcellulose) (HPC) 100 % of control | dose: 12.5 mg/kg/injection, schedule: Q01DX005 (ip), vehicle: Klucel (hydroxypropylcellulose) (HPC) 110 % of control | dose: 25.0 mg/kg/injection, schedule: Q01DX005 (ip), vehicle: Klucel (hydroxypropylcellulose) (HPC) 110 % of control

COC(=O)Nc1nc2ccc(SC)cc2c(=O)[nH]1
inactive: [1] 103 % of control and 105 % of control | [2] 113 % of control

O=C1C(Cl)=C(Nc2cccc3ccccc23)C(=O)C(Cl)=C1Nc1cccc2ccccc12
inactive: dose: 50.0 mg/kg/injection, schedule: Q01DX005 (ip), vehicle: Klucel (hydroxypropylcellulose) (HPC) 95 % of control | dose: 100.0 mg/kg/injection, schedule: Q01DX005 (ip), vehicle: Klucel (hydroxypropylcellulose) (HPC) 88 % of control | dose: 200.0 mg/kg/injection, schedule: Q01DX005 (ip), vehicle: Klucel (hydroxypropylcellulose) (HPC) 88 % of control

O=C(NC(=O)c1ccccc1F)Nc1ccc(C(O)(C(F)(F)F)C(F)(F)F)cc1
inactive: [9] 104 % of control | [10] 98 % of control | [11] 100 % of control

CCCCCCCCCCCCCCCCCOC(=O)CCCCCCCCCCCCC
inactive: dose: 100.0 mg/kg/injection, schedule: Q01DX001 (ip), vehicle: other 100 % of control | dose: 200.0 mg/kg/injection, schedule: Q01DX001 (ip), vehicle: other 95 % of control | dose: 400.0 mg/kg/injection, schedule: Q01DX001 (ip), vehicle: other 90 % of control

COc1ccc(CC2=CC(=O)C(C)=CC2=O)cc1
inactive: dose: 6.25 mg/kg/injection, schedule: Q01DX005 (ip), vehicle: saline with Tween-80 98 % of control | dose: 12.5 mg/kg/injection, schedule: Q01DX005 (ip), vehicle: saline with Tween-80 91 % of control | dose: 25.0 mg/kg/injection, schedule: Q01DX005 (ip), vehicle: saline with Tween-80 97 % of control

NC(CCl)=NCC1C2CC3CC(C2)CC1C3 (configuration not stated)
inactive: dose: 7.5 mg/kg/injection, schedule: Q01DX005 (ip), vehicle: saline with Tween-80 107 % of control and 116 % of control and 120 % of control | dose: 15.0 mg/kg/injection, schedule: Q01DX005 (ip), vehicle: saline with Tween-80 122 % of control | dose: 30.0 mg/kg/injection, schedule: Q01DX005 (ip), vehicle: saline with Tween-80 117 % of control

O=c1c(Cc2ccccc2)coc2ccccc12
inactive: dose: 60.0 mg/kg/injection, schedule: Q01DX005 (ip), vehicle: saline with Tween-80 106 % of control | dose: 120.0 mg/kg/injection, schedule: Q01DX005 (ip), vehicle: saline with Tween-80 100 % of control | dose: 240.0 mg/kg/injection, schedule: Q01DX005 (ip), vehicle: saline with Tween-80 103 % of control

N#CC1=C(C#N)CC(c2ccccc2)CC1 (configuration not stated)
inactive: [6] 104 % of control | [7] 100 % of control | [8] 96 % of control

CCCCCCCCCCCCSSC(=S)OC(C)C
inactive: dose: 50.0 mg/kg/injection, schedule: Q01DX009 (ip), vehicle: saline + Tween-80 + alcohol 100 % of control | dose: 100.0 mg/kg/injection, schedule: Q01DX009 (ip), vehicle: saline + Tween-80 + alcohol 116 % of control | dose: 200.0 mg/kg/injection, schedule: Q01DX009 (ip), vehicle: saline + Tween-80 + alcohol 122 % of control | dose: 400.0 mg/kg/injection, schedule: Q01DX009 (ip), vehicle: saline + Tween-80 + alcohol 119 % of control

Clc1ccc(N=C(SSC(Cl)(Cl)Cl)SSC(Cl)(Cl)Cl)cc1
inactive: [4] 114 % of control
